{"source": "patent US8299237B2", "about": "“Nucleic acid sequences comprising NF-κB binding site within O(6)-methylguanine-DNA-methyltransferase (MGMT) promoter region and uses thereof for the treatment of cancer and immune-related disorders” (Hadasit Medical Research Services & Development Ltd., priority 2007, dated 2012)", "key": {"[1]": {"test_system": "glioma cell lines A172, U87MG and T98G", "test": "BCNU crystal violet viability test in glioma cell lines", "type": "cell-based", "conditions": "BCNU 5-80 μg/ml, 2 hrs; viability 48 hrs later; p<0.001", "description": "(§1) Various glioma cell lines (A172, U87MG, and T98G) or HEK293 were transiently transfected with different plasmids as indicated above. For the BG-treated groups, BG (Benzyl Guanine, an MGMT inhibitor) was added to the cell medium 4-6 hrs after transfection at a final concentration of 80 μM and incubated with the cells for the duration of the experiment. At 24 hrs following transfection, the cells were exposed for 2 hrs to increasing concentrations of BCNU (as indicated), which is a β-chloro-nitrosourea compound used as an alkylating agent in chemotherapy. The cells were fixed 48 hrs later with 4% paraformaldehyde for 20 min at room temperature, and washed twice with PBS. A 400 μl volume of 0.5% crystal violet in dH2O was added and the cells were stained for 15 min on a vibrator at 300 rpm. The dye was aspirated, the wells rinsed with dH2O, and the plate was allowed to dry in the hood. For destaining, 400 μl of 10% acetic acid were added to each well and the cells were incubated for 15 min on a vibrator at 300 rpm. The optical density (OD590) of the de-stained solution in each well was read and recorded.\n(§2) To determine whether this also results in induction of cellular resistance to alkylating agents, the sensitivity of the three glioma cell lines to increasing quantities of BCNU (5-80 μg/ml), was next compared. […]"}, "HEK293 cells": {"test_system": "HEK293 cells", "test": "BG and BCNU treatment, crystal violet viability test in transfected HEK293", "type": "cell-based, human", "conditions": "BG 80 μM added 4-6 hrs after transfection; control and p65 transfected HEK293; BCNU 20-80 μg/ml 2 hrs", "description": "as §1, §2"}, "[2]": {"test_system": "canonical NF-κB binding site from HIV (HIV-κB-Luc construct)", "test": "Luciferase reporter assay, HIV-κB-Luc construct induced by p65", "type": "cell-based, human", "conditions": "150 nm LMODN", "description": "Transient transfections were performed in 6-well plates, using the FuGene6 transfection reagent (Roche Diagnostics GmbH, Mannheim, Germany), according to the manufacturer's instructions. U87MG, T98G, and A172 cells were transfected with pNF-κB-Luc reporter Vector (Clontech, Palo Alto, Calif.), while RG2 and U87MG were transfected with MGMT-Luc [construct p-954/+24 mL [Biswas T. et al. Oncogene 18:525-32 (1999)] kindly provided by Sankar Mitra] (1 μg/well). CMVβ-galactosidase expression vector (CMVβgal-Clonthech) was included (0.1 μg/well) in each transfection to normalize transfection efficiency. HEK293 cells were transfected with CMVβgal alone or along with one or more of the following plasmids: CMVp65, CMVΔNIκB, CMVp50, CMVcJun. CMVp65 and CMVΔNIκB plasmids were kindly provided by Prof. Yinon. Ben-Neriah (The Hebrew University, Jerusalem, Israel), CMVp50 and CMVcJun were kindly provided by Dr. Danielle Melloul (Hadassah Hebrew University Medical Center, Jerusalem, Israel). […]\nInduction of over expression of NF-κB in HEK 293T cells by transfection of a CMV-NF-κB/p65 generated a 50-fold elevation in luciferase expression driven by the Co-transfected reporter construct MGMT-kB1-Luc. […] No inhibition was detected when a mutant LMODN was introduced into the cells, indicating the specificity of MGMT-kB1-LMODN (of SEQ ID NO. 40 and 41). […]"}, "T98MG gliomas cell line [3]": {"test_system": "T98MG gliomas cell line", "type": "cell-based, human", "description": "(§3) T98MG glioma cell line cells were treated with increasing doses of the decoy ODN's of the invention. Double stranded ODNs (30mers), corresponding to MGMT-κB1 binding site (as also denoted by SEQ. ID. NO. 1), and control ODNs were purchased from IDT. Each strand of ODN was thirty-mers and contained six LNA nucleotides. The following ODNs were used: MGMT-kB1forward: 5′---+T+AATGGGG+ACTTTAC GGG+[…]+A+T---3′ (as also denoted by SEQ. ID. NO. 40) with or without the 5′ end labeled with carboxyfluorescein-5-succimidyl ester (FAM). The MGMT-kB1 reverse ODN: 5′---+A+TTCTGTA+[…]+[…]+T+A---3′ as also denoted by SEQ ID NO. 41). Control forward: 5′---+T+AG TGT CG+A CTT CAC TCT+ACT TGA CAG A+A+T---3′ (as also denoted by SEQ ID NO. 42), control reverse: 5′---+A+TT CTG TC+A AGT AGA GTG+AAG TCG ACA C+T+A---3′ as also denoted by SEQ ID NO. 43). It should be noted that (+designated as nucleotide containing an LNA modification).\n(§4) The viability of the cells was tested 24-48 hrs later by CellTiter-Blue assay (Promega®). The assay was carried out according to the supplier's instructions. Briefly, the assay is based on the ability of living cells to convert a redox dye (resazurin) into a fluorescent end product (resorufin). Cell viability estimation is done by measuring the fluorescent intensity of resorufin (ex. 560 nm, em. 590 nm) using a fluorescent microplate reader.\nThe inventors next tested the potential of the decoy LMODN molecules of the invention to sensitize tumor cells to alkylating agents and thereby improve their efficacy as anti-cancerous treatment. Therefore, several human cancer cell lines were treated with alkylating agents with increasing doses of MGMT-kB1-ODN followed by cell viability tests. First, the sensitivity of each cell line to several alkylating agents, mainly temozolomide (TMZ) and BCNU was calibrated. At 24 hrs following sowing, cells were exposed for two hours to increasing concentrations of the alkylating agent and viability of the cells was tested 24-48 hrs later by CellTiter-Blue assay (Promega®). To test the potential of MGMT-kB1-LMODN to sensitize tumor cells to alkylating agents in-vitro, increasing doses of LMODNs MGMT-kB1 forward and reverse as denoted by SEQ ID NO. 40 and 41, respectively), with or without the 5′ end labeled with carboxyfluorescein-5-succimidyl ester (FAM), as well as the control LMODNs (as denoted by SEQ ID NO. 42 and 43), were liposomally introduced (Lipofectamine 2000, Invitrogen) to various tumor cancer cells. Twenty four hours later, cells were treated with the different doses of alkylating agents as calibrated before.\nFIG. 9 represents an example of T98MG gliomas cell line sensitized to alkylating agents in response to treatment with the LMODN's of the invention. […]"}, "[4]": {"test_system": "MGMT-kB1-Luc reporter construct induced by NF-κB/p65", "test": "Luciferase reporter assay, MGMT-kB1-Luc co-transfected with NF-κB/p65", "type": "cell-based, human", "conditions": "for effect on luciferase activity driven by MGMT-kB1 reporter (in words): HEK293T co-transfected with MGMT-kB1 reporter and NF-κB/p65", "description": "Transient transfections were performed in 6-well plates, using the FuGene6 transfection reagent (Roche Diagnostics GmbH, Mannheim, Germany), according to the manufacturer's instructions. U87MG, T98G, and A172 cells were transfected with pNF-κB-Luc reporter Vector (Clontech, Palo Alto, Calif.), while RG2 and U87MG were transfected with MGMT-Luc [construct p-954/+24 mL [Biswas T. et al. Oncogene 18:525-32 (1999)] kindly provided by Sankar Mitra] (1 μg/well). CMVβ-galactosidase expression vector (CMVβgal-Clonthech) was included (0.1 μg/well) in each transfection to normalize transfection efficiency. HEK293 cells were transfected with CMVβgal alone or along with one or more of the following plasmids: CMVp65, CMVΔNIκB, CMVp50, CMVcJun. CMVp65 and CMVΔNIκB plasmids were kindly provided by Prof. Yinon. Ben-Neriah (The Hebrew University, Jerusalem, Israel), CMVp50 and CMVcJun were kindly provided by Dr. Danielle Melloul (Hadassah Hebrew University Medical Center, Jerusalem, Israel).\nAt 24 hrs following transfection, the cells were lysed for 15 min on ice with 200 μl of luciferase lysis buffer (Promega, Madison, Wis.). Luciferase assays were carried out using a Promega assay kit and a luminometer (EG&G Berthold, Bad Wildbad, Germany). The activity was normalized to β-galactosidase activity (Promega) and plotted as the mean±s.d. of triplicates from a representative experiment.\nFor the cloning of the MGMT-luc constructs the reporter vector p-TA-Luc (Clontech, Palo Alto, USA) was used. The plasmid contains TATA box motif upstream to a luciferase reporter gene. A double stranded DNA corresponding to four repeats of each sequence as indicated by FIG. 8A (also denoted by SEQ ID NO. 44, 45, 46 and 47), was synthesis by syntezza LTD and ligated upstream to the TATA box.\nTo test the activity of these sites, several luciferase reporter genes bearing four copies of either intact or mutant sequence, of each of the two NF-κB sites (NF-κB1 and NF-κB2), were constructed as indicated in Experimental procedures. […] An inhibition of approximately 50% was observed using 100 nM ODN. Negative control using the CMVΔNIκB (ΔN)-Luc construct as well as positive control using the canonical HIV-κB-Luc reporter construct, confirmed validity of the data.\nInduction of over expression of NF-κB in HEK 293T cells by transfection of a CMV-NF-κB/p65 generated a 50-fold elevation in luciferase expression driven by the Co-transfected reporter construct MGMT-kB1-Luc. […] Inhibition of approximately 90% was induced by 150 nM LMODN. […] No inhibition was detected when a mutant LMODN was introduced into the cells, indicating the specificity of MGMT-kB1-LMODN (of SEQ ID NO. 40 and 41). […] 3 (HIV-κB-Luc construct)."}, "T98MG gliomas cell line [5]": {"test_system": "T98MG gliomas cell line", "type": "cell-based, human", "conditions": "corresponding concentrations, 48 hours", "description": "as §3\nas §4, with “reader. […]” for “reader.”"}}, "note": "Entries after “also recorded” stand apart in the source; their conditions may differ.", "data": [{"compound": "O=NN(CCCl)C(=O)NCCCl", "note": "[BCNU, 1,3-bis(2-chloroethyl)-1-nitrosourea]", "values": [{"measurement": "resistance of T98G to BCNU compared with A172 and U87MG (in words)", "setting": "[1]", "result": "more resistant"}]}, {"compound": "Nc1nc(OCc2ccccc2)c2nc[nH]c2n1", "note": "[BG, O6-Benzylguanine]", "values": [{"measurement": "effect of BG on sensitivity to BCNU (in words)", "setting": "HEK293 cells", "result": "augmented the cell sensitivity to BCNU; also recorded: completely abrogated the p65-induced chemoresistance"}]}, {"compound": "MGMT-kB1-LMODN: double stranded 30-mer LNA modified decoy ODN of MGMT-κB1 site; forward SEQ ID NO. 40, reverse SEQ ID NO. 41 (sense TAATGGGGACTTTACGGGACTTTACAGAAT; antisense ATTCTGTAAAGTCCCGTAAAGTCCCCATTA; LNA modified, positions not given here; listed as Homo sapiens) [double stranded 30-mer LNA modified decoy ODN of MGMT-κB1 site; 41]", "values": [{"measurement": "inhibition of p65-induced luciferase expression", "setting": "[2]", "result": 57, "unit": "%"}, {"measurement": "toxicity to cells, viability of cells treated only with the LMODN", "setting": "T98MG gliomas cell line [3]", "result": "not toxic to the cells"}, {"measurement": "live cells", "setting": "T98MG gliomas cell line [3]; 2.5 mM TMZ with 2 nm LMODN", "result": 22, "unit": "%"}, {"measurement": "inhibition of luciferase activity", "setting": "[4]; 150 nM LMODN, liposomal, HEK 293T, MGMT-kB1-Luc + NFκB/p65 (FIG. 8)", "result": "approximately 90%"}, {"measurement": "effect on luciferase activity driven by MGMT-kB1 reporter (in words)", "setting": "[4]", "result": "inhibited the luciferase activity in a dose-dependent manner"}, {"measurement": "inhibitory activity relative to NF-κB super repressor ΔNI-κB", "setting": "[4]; LMODN at 150 nM", "result": "two fold greater"}]}, {"compound": "mMGMT-kB1-LMODN: mutant control LNA modified ODN; control forward SEQ ID NO. 42, control reverse SEQ ID NO. 43 (sense TAGTGTCGACTTCACTCTACTTGACAGAAT; antisense ATTCTGTCAAGTAGAGTGAAGTCGACACTA; LNA modified, positions not given here; listed as Homo sapiens) [mutant control LNA modified ODN; 43]", "values": [{"measurement": "effect on cell survival (in words)", "setting": "T98MG gliomas cell line [5]", "result": "no reduction in cell survival"}, {"measurement": "additive effect with TMZ (in words)", "setting": "T98MG gliomas cell line [3]; 2.5 mM TMZ with mutant LMODN (FIG. 9)", "result": "no any additive effect"}, {"measurement": "effect on luciferase activity driven by MGMT-kB1 reporter (in words)", "setting": "[4]", "result": "No inhibition"}]}]}
